{
  "source": "patent US20210213104A1",
  "about": "“GLUCAGON AND GLP-1 CO-AGONISTS FOR THE TREATMENT OF CHRONIC KIDNEY DISEASE AND DIABETIC KIDNEY DISEASE IN TYPE 2 DIABETES” (MEDIMMUNE LIMITED, priority 2020, published 2021)",
  "system": "subjects with T2DM and renal impairment",
  "assay": "Phase 2a: continuous glucose monitoring (CGM)",
  "assay_type": "in vivo, human",
  "settings": "ITT",
  "experimental": "Cotadutide was titrated from 50 μg up to 300 μg and administered once daily by subcutaneous (SC) injection over 32 days.\nCotadutide was administered at 50 μg once daily for 4 days, followed by 100 μg daily for 7 days, 200 μg daily for 7 days, and 300 μg daily for 14 days (n=20). Placebo was administered one daily for 32 days (n=20). Cotadutide and placebo were administered in the morning. Dosing commenced following predose baseline vital signs, blood tests (including HbA1c), an electrocardiogram (ECG), body weight measurement, and bioimpedance spectroscopy (BIS). Subjects then returned for daily dosing or remained overnight locally until Day 5, and thereafter, had visits at weekly intervals until a maintenance dose of 300 μg was established. Thus, Cotadutide or placebo was administered at the study site by study personal for the first four doses and on site on Days 5, 12, 19, and 32. At all other times, subjects preformed dosing at home.\nA Freestyle Libre® Pro CGM device was used to measure interstitial glucose levels. […] Data generated by CGM was used at visits to adjust insulin doses and other treatments.\nThe CGM sensor, which is a small plastic circular device of 35 mm diameter and 5 mm depth, was applied to the back of the upper arm. Subjects wore the CGM sensor continuously up until the time of a sensor change, which was to occur within 14 days, and they were advised that they could bathe and shower, and swim in up to 3 m depth for up to 30 minutes while wearing the CGM sensor. When the CGM sensor was removed, a new CGM sensor could be reapplied, ideally close to the original site, but with the subject's site preference taken into account. CGM sensors were single-use only.\nIf a subject was unable to tolerate wearing the CGM sensor for the entire duration of the study, the sensor was removed; but the subject was to remain in the study with or without continued CGM and could instead be instructed to monitor capillary plasma glucose measurements four times per day (before meals and before bedtime) and record these levels in the diary provided.\nSubjects underwent continuous glucose monitoring (CGM) starting from Day −14 to Day 40 (±5 days), with sensor changes within 14-day intervals. CGM readings were used to analyze change in average CGM glucose and glucose AUC7 d, coefficient of variation as a marker of glycemic variability, and time spent in target glucose range and hypoglycemia, to enable comparison across different dose levels.",
  "key": {"[1]": {"settings": "200 μg (Days 12 to 18), baseline Days −8 to −2, ANCOVA"}, "[2]": {"settings": "200 μg (Days 12 to 18), baseline Days −8 to −2"}, "[3]": {"settings": "200 μg Dose (Days 12 to 18), Insulin Dose < 20 U/day"}, "[4]": {"settings": "200 μg Dose (Days 12 to 18), Insulin Dose ≥ 20 U/day"}, "[5]": {"settings": "200 μg Dose (Days 12 to 18), Total"}},
  "data": [
    {"smiles": "CCCCCCCCCCCCCCCC(=O)N[C@@H](CCC(=O)NCCCC[C@H](NC(=O)[C@H](CC(=O)O)NC(=O)[C@H](CO)NC(=O)[C@@H](NC(=O)[C@H](Cc1ccccc1)NC(=O)[C@@H](NC(=O)CNC(=O)[C@H](CCC(N)=O)NC(=O)[C@H](CO)NC(=O)[C@@H](N)Cc1c[nH]cn1)[C@@H](C)O)[C@@H](C)O)C(=O)N[C@@H](CO)C(=O)N[C@@H](CCC(=O)O)C(=O)N[C@@H](Cc1ccc(O)cc1)C(=O)N[C@@H](CC(C)C)C(=O)N[C@@H](CC(=O)O)C(=O)N[C@@H](CO)C(=O)N[C@@H](CCC(=O)O)C(=O)N[C@@H](CCCNC(=N)N)C(=O)N[C@@H](C)C(=O)N[C@@H](CCCNC(=N)N)C(=O)N[C@@H](CC(=O)O)C(=O)N[C@@H](Cc1ccccc1)C(=O)N[C@H](C(=O)N[C@@H](C)C(=O)N[C@@H](Cc1c[nH]c2ccccc12)C(=O)N[C@@H](CC(C)C)C(=O)N[C@@H](CCC(=O)O)C(=O)N[C@@H](C)C(=O)NCC(=O)NCC(=O)O)C(C)C)C(=O)O", "note": "[Cotadutide]", "values": [
      {"measurement": "Time in target range, Difference in LS Mean Change (vs Placebo)", "setting": "100 μg Dose (Days 5 to 11), Total", "value": 22.74, "unit": "%"},
      {"measurement": "Average CGM Glucose Over 7-Day Periods, End of Dosing Period, Mean", "setting": "200 μg (Days 12 to 18)", "value": 131.724, "unit": "mg/dL"},
      {"measurement": "Average CGM Glucose Over 7-Day Periods, End of Dosing Period, Median", "setting": "200 μg (Days 12 to 18)", "value": 121.570, "unit": "mg/dL"},
      {"measurement": "Percentage of time CGM Glucose in Hyperglycemia (>180 mg/dL), End of Dosing Period, Mean", "setting": "200 μg (Days 12 to 18)", "value": 14.77, "unit": "%"},
      {"measurement": "Percentage of time CGM Glucose in Hyperglycemia (>180 mg/dL), End of Dosing Period, Median", "setting": "200 μg (Days 12 to 18)", "value": 6.61, "unit": "%"},
      {"measurement": "Average CGM Glucose Over 7-Day Periods, Difference in LS Mean Change (vs Placebo)", "setting": "[1]", "value": -40.34, "unit": "mg/dL"},
      {"measurement": "Average CGM Glucose Over 7-Day Periods, LS Mean Change", "setting": "[1]", "value": -30.66, "unit": "mg/dL"},
      {"measurement": "Percentage of time CGM Glucose in Clinically Significant Hypoglycemia (<54 mg/dL), Difference in LS Mean Change (vs Placebo)", "setting": "[1]", "value": 0.43, "unit": "%"},
      {"measurement": "Percentage of time CGM Glucose in Clinically Significant Hypoglycemia (<54 mg/dL), LS Mean Change", "setting": "[1]", "value": "−0.21", "unit": "%"},
      {"measurement": "Percentage of time CGM Glucose in Hyperglycemia (>180 mg/dL), Difference in LS Mean Change (vs Placebo)", "setting": "[1]", "value": "−25.47", "unit": "%"},
      {"measurement": "Percentage of time CGM Glucose in Hyperglycemia (>180 mg/dL), LS Mean Change", "setting": "[1]", "value": "−19.24", "unit": "%"},
      {"measurement": "Percentage of time CGM Glucose in Hypoglycemia (<70 mg/dl), Difference in LS Mean Change (vs Placebo)", "setting": "[1]", "value": 0.86, "unit": "%"},
      {"measurement": "Percentage of time CGM Glucose in Hypoglycemia (<70 mg/dl), LS Mean Change", "setting": "[1]", "value": "−0.14", "unit": "%"},
      {"measurement": "Average CGM Glucose Over 7-Day Periods, Change from Baseline to End of Dosing Period, Mean", "setting": "[2]", "value": -30.668, "unit": "mg/dL"},
      {"measurement": "Average CGM Glucose Over 7-Day Periods, Change from Baseline to End of Dosing Period, Median", "setting": "[2]", "value": -32.533, "unit": "mg/dL"},
      {"measurement": "Percentage of time CGM Glucose in Hyperglycemia (>180 mg/dL), Change from Baseline to End of Dosing Period, Mean", "setting": "[2]", "value": "−19.36", "unit": "%"},
      {"measurement": "Percentage of time CGM Glucose in Hyperglycemia (>180 mg/dL), Change from Baseline to End of Dosing Period, Median", "setting": "[2]", "value": "−17.72", "unit": "%"},
      {"measurement": "Time in target range, LS Mean Change", "setting": "200 μg Dose (Days 12 to 18), ANCOVA, Insulin Dose < 20 U/day", "value": 21.04, "unit": "%"},
      {"measurement": "Time in target range, LS Mean Change", "setting": "200 μg Dose (Days 12 to 18), ANCOVA, Insulin Dose ≥ 20 U/day", "value": 12.92, "unit": "%"},
      {"measurement": "Time in target range, LS Mean Change", "setting": "200 μg Dose (Days 12 to 18), ANCOVA, Total", "value": 15.62, "unit": "%"},
      {"measurement": "Percentage of Time CGM Glucose Within Target Range (70-180 mg/dL), Mean", "setting": "[3]", "value": 89.01, "unit": "%"},
      {"measurement": "Percentage of Time CGM Glucose Within Target Range (70-180 mg/dL), Median", "setting": "[3]", "value": 96.38, "unit": "%"},
      {"measurement": "Time in target range, Change from Baseline (Days −8 to −2), Mean", "setting": "[3]", "value": 24.48, "unit": "%"},
      {"measurement": "Time in target range, Change from Baseline (Days −8 to −2), Median", "setting": "[3]", "value": 23.79, "unit": "%"},
      {"measurement": "Time in target range, Difference in LS Mean Change (vs Placebo)", "setting": "[3]", "value": 25.01, "unit": "%"},
      {"measurement": "Percentage of Time CGM Glucose Within Target Range (70-180 mg/dL), Mean", "setting": "[4]", "value": 73.53, "unit": "%"},
      {"measurement": "Percentage of Time CGM Glucose Within Target Range (70-180 mg/dL), Median", "setting": "[4]", "value": 79.59, "unit": "%"},
      {"measurement": "Time in target range, Change from Baseline (Days −8 to −2), Mean", "setting": "[4]", "value": 11.20, "unit": "%"},
      {"measurement": "Time in target range, Change from Baseline (Days −8 to −2), Median", "setting": "[4]", "value": 11.27, "unit": "%"},
      {"measurement": "Time in target range, Difference in LS Mean Change (vs Placebo)", "setting": "[4]", "value": 18.72, "unit": "%"},
      {"measurement": "Percentage of Time CGM Glucose Within Target Range (70-180 mg/dL), Mean", "setting": "[5]", "value": 78.69, "unit": "%"},
      {"measurement": "Percentage of Time CGM Glucose Within Target Range (70-180 mg/dL), Median", "setting": "[5]", "value": 80.69, "unit": "%"},
      {"measurement": "Time in target range, Change from Baseline (Days −8 to −2), Mean", "setting": "[5]", "value": 15.39, "unit": "%"},
      {"measurement": "Time in target range, Change from Baseline (Days −8 to −2), Median", "setting": "[5]", "value": 14.44, "unit": "%"},
      {"measurement": "Time in target range, Difference in LS Mean Change (vs Placebo)", "setting": "[5]", "value": 20.96, "unit": "%"}
    ]}
  ]
}
